Data: patent publication US7384959B2, “Treatment of convulsive states” (priority 1999, dated 2008)
Marks after values point to notes of the source that are not given here.

How the values were obtained:
rat [1] = assay: Irwin Observation Test in the rat, subcutaneous route; assay type: in vivo; design: key to Mydriasis / Hyperthermia / Excitation: +=slight; ++=moderate
Description: (§1) The following Tables report the results of the Irwin, PTZ and barbital interaction (sleep induction) tests. Description of these tests may be found in Psychopharmacologica, 13:222-257 (1968), Krall et al, Epilepsia 19:409-428 (1978), and Simon et al, J. Pharmacol, Paris 13:241-252 (1982). See also Roux et al, Phoenix international Pharmacology Reports Nos. D30.2061/2 and D99.021/2.
In Table 1, the following apply: +=slight; ++=moderate
(X/N) indicates the number of rats showing the symptoms.
Observations were performed at 15, 30, 60, 120, 180 minutes and 24 hours after administration.
Hyperthermia and mydriasis were evaluated by comparison of the mean scores obtained in treated and control animals.

rat [2] = assay: Pentylenetetrazole (PTZ) Seizure Test; assay type: in vivo; details: for NUMBER OF CLONIC CONVULSIONS number of rats / NUMBER OF DEATHS number of rats / NUMBER OF TONIC CONVULSIONS number of rats: 10 rats per group; for NUMBER OF CLONIC CONVULSIONS number of rats / NUMBER OF DEATHS number of rats / NUMBER OF TONIC CONVULSIONS number of rats / NUMBER OF CLONIC CONVULSIONS % antagonism / NUMBER OF DEATHS % antagonism / NUMBER OF TONIC CONVULSIONS % antagonism: observed during 60 minutes; for LATENCY TO CLONIC CONVULSIONS % change from control / LATENCY TO CLONIC CONVULSIONS mean ± s.e.m. / LATENCY TO DEATHS % change from control / LATENCY TO DEATHS mean ± sem. / LATENCY TO TONIC CONVULSIONS % change from control / LATENCY TO TONIC CONVULSIONS mean ± sem.: rat; for anticonvulsant activity in the PTZ Seizure Test: animal model, delivered subcutaneously
Description: as §1
Table 2a reports mean results based on animals showing the symptoms (minimum=3 animals). Table 2b reports results observed during 60 minutes. In these Tables: Student's t Test: NS=Not Significant; *=p<0.05; ** p<0.01; ***=p<0.001 Fisher's Exact Test: No indication=Not Significant; **=p<0.01; ***=p<0.001

mouse = assay: liver damage (plasma alanine aminotransferase, microscopic examination for hepatic necrosis); assay type: in vivo
Method: (§2) At very high doses, some inhibition of cytochrome P450 sub-types C8/9, 2C18/19 and 2D6 was found, but the concentrations required to inhibit enzyme activities (100 μM) were much greater than the maximum concentrations likely to be found in vivo and are therefore not likely to be clinically relevant.

[3] = target: T1, cytochrome P450 sub-type 1A2 (Homo sapiens, UniProt P05177); assay: effect on cytochrome P450 activity; assay type: in vitro ADME
T1 sequence (P05177 1-516): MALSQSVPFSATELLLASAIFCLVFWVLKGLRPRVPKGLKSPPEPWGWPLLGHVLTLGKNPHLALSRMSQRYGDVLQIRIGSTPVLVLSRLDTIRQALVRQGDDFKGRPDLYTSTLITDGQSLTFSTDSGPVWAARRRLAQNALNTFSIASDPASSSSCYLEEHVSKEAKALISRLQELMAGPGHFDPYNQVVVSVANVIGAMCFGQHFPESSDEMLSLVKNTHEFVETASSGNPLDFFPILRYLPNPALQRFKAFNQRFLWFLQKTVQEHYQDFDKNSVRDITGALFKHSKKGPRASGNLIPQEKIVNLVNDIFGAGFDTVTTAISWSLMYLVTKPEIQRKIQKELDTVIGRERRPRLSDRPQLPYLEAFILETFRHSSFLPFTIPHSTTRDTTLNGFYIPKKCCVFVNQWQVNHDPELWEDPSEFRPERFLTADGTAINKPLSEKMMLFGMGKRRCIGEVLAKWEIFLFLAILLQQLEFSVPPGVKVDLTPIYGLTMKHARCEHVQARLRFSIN
Method: as §2

[4] = system: cytochrome P450 sub-type 2C18/19; assay: effect on cytochrome P450 activity; assay type: in vitro ADME; details: some inhibition at very high doses
Method: as §2

[5] = target: cytochrome P450 sub-type 2D6 (Homo sapiens, UniProt P10635); assay: effect on cytochrome P450 activity; assay type: in vitro ADME; details: some inhibition at very high doses
Sequence of cytochrome P450 sub-type 2D6 (P10635 whole entry): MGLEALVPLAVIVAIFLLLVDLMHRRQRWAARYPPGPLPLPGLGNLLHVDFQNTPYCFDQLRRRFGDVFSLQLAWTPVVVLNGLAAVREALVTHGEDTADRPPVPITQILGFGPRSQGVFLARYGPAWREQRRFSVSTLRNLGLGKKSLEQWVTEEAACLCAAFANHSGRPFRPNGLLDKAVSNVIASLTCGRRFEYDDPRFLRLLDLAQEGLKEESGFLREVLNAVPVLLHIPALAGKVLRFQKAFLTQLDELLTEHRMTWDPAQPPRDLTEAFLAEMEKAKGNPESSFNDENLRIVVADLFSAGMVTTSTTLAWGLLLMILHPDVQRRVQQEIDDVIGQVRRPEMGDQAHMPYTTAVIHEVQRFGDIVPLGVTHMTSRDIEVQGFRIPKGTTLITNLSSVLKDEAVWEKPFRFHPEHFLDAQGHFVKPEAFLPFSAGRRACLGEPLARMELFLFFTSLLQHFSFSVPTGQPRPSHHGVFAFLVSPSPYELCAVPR
Method: as §2

[6] = target: cytochrome P450 sub-type 2E1 (Homo sapiens, UniProt P05181); assay: effect on cytochrome P450 activity; assay type: in vitro ADME
Sequence of cytochrome P450 sub-type 2E1 (P05181 whole entry): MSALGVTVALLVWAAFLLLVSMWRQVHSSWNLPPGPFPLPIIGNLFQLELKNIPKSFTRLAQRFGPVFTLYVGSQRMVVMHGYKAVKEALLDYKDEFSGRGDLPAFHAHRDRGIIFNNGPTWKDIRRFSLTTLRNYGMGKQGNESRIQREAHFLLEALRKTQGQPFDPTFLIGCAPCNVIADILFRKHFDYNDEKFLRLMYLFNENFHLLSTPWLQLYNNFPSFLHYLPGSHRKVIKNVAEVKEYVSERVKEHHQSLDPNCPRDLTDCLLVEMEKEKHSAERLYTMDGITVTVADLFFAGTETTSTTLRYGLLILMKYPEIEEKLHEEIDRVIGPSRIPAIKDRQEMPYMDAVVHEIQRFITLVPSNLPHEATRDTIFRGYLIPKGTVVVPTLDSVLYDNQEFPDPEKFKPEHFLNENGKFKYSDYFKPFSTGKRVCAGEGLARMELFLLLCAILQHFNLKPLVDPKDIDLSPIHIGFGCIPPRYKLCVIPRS
Method: as §2

[7] = target: cytochrome P450 sub-type 3A4 (Homo sapiens, UniProt P08684); assay: effect on cytochrome P450 activity; assay type: in vitro ADME
Sequence of cytochrome P450 sub-type 3A4 (P08684 whole entry): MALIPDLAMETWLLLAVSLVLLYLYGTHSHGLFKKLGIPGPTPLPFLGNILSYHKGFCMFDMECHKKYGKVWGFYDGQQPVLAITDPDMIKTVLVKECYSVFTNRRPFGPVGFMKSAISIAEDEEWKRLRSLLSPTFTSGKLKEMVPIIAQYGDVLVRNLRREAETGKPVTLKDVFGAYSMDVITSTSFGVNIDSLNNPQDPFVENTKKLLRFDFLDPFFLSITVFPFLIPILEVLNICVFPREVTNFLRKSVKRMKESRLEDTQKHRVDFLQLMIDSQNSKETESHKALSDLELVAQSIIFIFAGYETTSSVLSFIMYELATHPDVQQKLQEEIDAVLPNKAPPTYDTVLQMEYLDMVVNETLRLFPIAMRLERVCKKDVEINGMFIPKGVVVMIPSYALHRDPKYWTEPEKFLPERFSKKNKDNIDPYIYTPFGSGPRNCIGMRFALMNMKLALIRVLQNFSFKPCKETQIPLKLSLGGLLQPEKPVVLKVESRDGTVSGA
Method: as §2

[8] = system: cytochrome P450 sub-type C8/9; assay: effect on cytochrome P450 activity; assay type: in vitro ADME; details: some inhibition at very high doses
Method: as §2

[9] = system: attention-deficit hyperactivity disorder (ADHD); details: Patrick et al 1987; cited from earlier work
[10] = cited from earlier work
[11] = after intravenous dosing; Ding et al 1997; cited from earlier work

COC(=O)[C@@H](c1ccccc1)[C@@H]1CCCCN1 [l-MPH, l-threo-Methylphenidate]
Irwin test observation (cell wraps: No change) (rat [1]; 2 mg/kg s.c., rat): No | Mydriasis (rat [1]; 4 mg/kg s.c., at 30′): Mydriasis + | Excitation (rat [1]; 8 mg/kg s.c., at 30′): Excitation + | Excitation, number of rats showing the symptoms (X/N) (rat [1]; 8 mg/kg s.c., at 30′): (2/3) at 30′ | Mydriasis (rat [1]; 8 mg/kg s.c., at 30′): Mydriasis + | Stereotypies (sniffing), number of rats showing the symptoms (X/N) (rat [1]; 8 mg/kg s.c., at 30′): (1/3) at 30′ | Stereotypies (sniffing), number of rats showing the symptoms (X/N) (rat [1]; 16 mg/kg s.c., 30′ → 120′): (3/3) 30′ → 120′ | Excitation (rat [1]; 16 mg/kg s.c., 60′ → 120′): Excitation + | Excitation, number of rats showing the symptoms (X/N) (rat [1]; 16 mg/kg s.c., 60′ → 120′): (2/3) 60′ → 120′ | Stereotypies (head movements), number of rats showing the symptoms (X/N) (rat [1]; 16 mg/kg s.c., 60′ → 120′): (1/3) 60′ → 120′ | Mydriasis (rat [1]; 16 mg/kg s.c., at 30′): Mydriasis + at 30′ | Excitation (rat [1]; 32 mg/kg s.c., 15′ → 30′): Excitation + | Excitation, number of rats showing the symptoms (X/N) (rat [1]; 32 mg/kg s.c., 15′ → 30′): (3/3) 15′ → 30′ | ↑ Reactivity to touch, number of rats showing the symptoms (X/N) (rat [1]; 32 mg/kg s.c., 15′ → 30′): (3/3) 15′ → 30′ | Mydriasis (rat [1]; 32 mg/kg s.c., 15′ → 120′): (++ 15′ → | Stereotypies (sniffing), number of rats showing the symptoms (X/N) (rat [1]; 32 mg/kg s.c., 15′ → 120′): (3/3) | ↑ Fear, number of rats showing the symptoms (X/N) (rat [1]; 32 mg/kg s.c., 15′ → 120′): (3/3) | Hyperthermia (rat [1]; 32 mg/kg s.c., at 30′ and 120′): Hyperthermia + | Mydriasis (rat [1]; 32 mg/kg s.c., at 180′): (+ at 180′) | Irwin test observations at higher doses (rat [1]; 64, 128 and 256 mg/kg, s.c., rat): all rats exhibited further characteristics including sedation, fore-paw treading, stereotypes (head movements) and decreased muscle tone | signs of stimulation in the Irwin profile (rat [1]; at doses having anti-convulsant effects): Slight signs of stimulation were noted | sedation in the Irwin profile (rat [1]; at the doses used in the PTZ test): sedation was not noted | NUMBER OF CLONIC CONVULSIONS number of rats (rat [2]; 8 mg/kg s.c. −30 min): 10 | NUMBER OF DEATHS number of rats (rat [2]; 8 mg/kg s.c. −30 min): 10 | NUMBER OF TONIC CONVULSIONS number of rats (rat [2]; 8 mg/kg s.c. −30 min): 10 | NUMBER OF CLONIC CONVULSIONS % antagonism (rat [2]; 8 mg/kg s.c. −30 min): 0% | NUMBER OF DEATHS % antagonism (rat [2]; 8 mg/kg s.c. −30 min): 0% | NUMBER OF TONIC CONVULSIONS % antagonism (rat [2]; 8 mg/kg s.c. −30 min): 0% | LATENCY TO CLONIC CONVULSIONS % change from control (rat [2]; 8 mg/kg s.c. −30 min): +38% | LATENCY TO CLONIC CONVULSIONS mean ± s.e.m. (rat [2]; 8 mg/kg s.c. −30 min): 756.0 ± 105.0 NS sec | LATENCY TO DEATHS % change from control (rat [2]; 8 mg/kg s.c. −30 min): +20% | LATENCY TO DEATHS mean ± sem. (rat [2]; 8 mg/kg s.c. −30 min): 1566.1 ± 199.9 NS sec | LATENCY TO TONIC CONVULSIONS % change from control (rat [2]; 8 mg/kg s.c. −30 min): +23% | LATENCY TO TONIC CONVULSIONS mean ± sem. (rat [2]; 8 mg/kg s.c. −30 min): 1443.0 ± 198.2 NS sec | NUMBER OF CLONIC CONVULSIONS number of rats (rat [2]; 16 mg/kg s.c. −30 min): 9 | NUMBER OF DEATHS number of rats (rat [2]; 16 mg/kg s.c. −30 min): 7 | NUMBER OF TONIC CONVULSIONS number of rats (rat [2]; 16 mg/kg s.c. −30 min): 8 | NUMBER OF CLONIC CONVULSIONS % antagonism (rat [2]; 16 mg/kg s.c. −30 min): 10% | NUMBER OF DEATHS % antagonism (rat [2]; 16 mg/kg s.c. −30 min): 30% | NUMBER OF TONIC CONVULSIONS % antagonism (rat [2]; 16 mg/kg s.c. −30 min): 20% | LATENCY TO CLONIC CONVULSIONS % change from control (rat [2]; 16 mg/kg s.c. −30 min): +99% | LATENCY TO CLONIC CONVULSIONS mean ± s.e.m. (rat [2]; 16 mg/kg s.c. −30 min): 1086.7 ± 213.6* sec | LATENCY TO DEATHS % change from control (rat [2]; 16 mg/kg s.c. −30 min): +35% | LATENCY TO DEATHS mean ± sem. (rat [2]; 16 mg/kg s.c. −30 min): 1757.1 ± 209.8* sec | LATENCY TO TONIC CONVULSIONS % change from control (rat [2]; 16 mg/kg s.c. −30 min): +53% | LATENCY TO TONIC CONVULSIONS mean ± sem. (rat [2]; 16 mg/kg s.c. −30 min): 1785.0 ± 292.2* sec | NUMBER OF CLONIC CONVULSIONS number of rats (rat [2]; 32 mg/kg s.c. −30 min): 10 | NUMBER OF DEATHS number of rats (rat [2]; 32 mg/kg s.c. −30 min): 3++ | NUMBER OF TONIC CONVULSIONS number of rats (rat [2]; 32 mg/kg s.c. −30 min): 3++ | NUMBER OF CLONIC CONVULSIONS % antagonism (rat [2]; 32 mg/kg s.c. −30 min): 0% | NUMBER OF DEATHS % antagonism (rat [2]; 32 mg/kg s.c. −30 min): 70% | NUMBER OF TONIC CONVULSIONS % antagonism (rat [2]; 32 mg/kg s.c. −30 min): 70% | LATENCY TO CLONIC CONVULSIONS % change from control (rat [2]; 32 mg/kg s.c. −30 min): +226% | LATENCY TO CLONIC CONVULSIONS mean ± s.e.m. (rat [2]; 32 mg/kg s.c. −30 min): 1782.0 ± 161.7*** sec | LATENCY TO DEATHS % change from control (rat [2]; 32 mg/kg s.c. −30 min): +150% | LATENCY TO DEATHS mean ± sem. (rat [2]; 32 mg/kg s.c. −30 min): 3260.0 ± 121.7*** sec | LATENCY TO TONIC CONVULSIONS % change from control (rat [2]; 32 mg/kg s.c. −30 min): +162% | LATENCY TO TONIC CONVULSIONS mean ± sem. (rat [2]; 32 mg/kg s.c. −30 min): 3070.0 ± 164.6*** sec | anticonvulsant activity in the PTZ Seizure Test (rat [2]): has anticonvulsant potential | anticonvulsant activity in the PTZ Seizure Test (rat [2]; listed as l-enantiomer): possess anticonvulsant activity | liver damage as assessed by increased plasma level of alanine aminotransferase and microscopic examination for hepatic necrosis (mouse): not to be linked with liver damage | effect on activity of cytochrome P450 sub-type 1A2 [3]: little or no effect | concentration required to inhibit enzyme activity, cytochrome P450 sub-type 2C18/19 [4]: 100 µM | concentration required to inhibit enzyme activity, cytochrome P450 sub-type 2D6 [5]: 100 µM | effect on activity of cytochrome P450 sub-type 2E1 [6]: little or no effect | effect on activity of cytochrome P450 sub-type 3A4 [7]: little or no effect | concentration required to inhibit enzyme activity, cytochrome P450 sub-type C8/9 [8]: 100 µM | pharmacological action in the treatment of ADHD [9]: no action on the part of the l-enantiomer (l-MPH) has been detected | systemic availability following oral dosing [10]: very little l-MPH enters the circulation or becomes available to the brain | detection in the brain [11]: detected in the brain
